Among the data in article PMC7409020, “Tumor-Targeting Peptides: The Functional Screen of Glioblastoma Homing Peptides to the Target Protein FABP3 (MDGI)” (Cancers, 2020) are Kd values, retold here.

Square brackets hold non-standard residues; d marks the D form. Peptide text beside a SMILES is read from it.

For this test, the target named is T1, recombinant FABP3 (Homo sapiens, UniProt P05413).
T1 construct: made in house; host or cells: Escherichia coli BL21 (DE3)
T1 sequence (P05413 whole entry): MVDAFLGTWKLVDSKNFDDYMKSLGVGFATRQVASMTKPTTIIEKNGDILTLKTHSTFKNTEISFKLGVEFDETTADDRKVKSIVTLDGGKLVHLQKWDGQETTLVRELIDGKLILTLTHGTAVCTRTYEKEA
Kind of test: Microscale thermophoresis (MST) binding to NT-650-NHS-labeled FABP3. Conditions: 20 nM labeled FABP3; peptide 500 µM to 0.0153 µM, two-fold dilutions; PBS-tween 20 pH 7.4; 25 °C; 40% MST power; 1:1 fit; mean ± SD of three independent experiments. On the procedure:
For the binding affinity measurements between the recombinant FABP3 and the A-CooP, its variants, and the control peptide, we used the microscale thermophoresis. […] For these analyses, FABP3 was labeled with an NT-650-NHS fluorescence. Two-fold serially diluted peptides ranging from 500 µM to 0.0153 µM were titrated against a constant FABP3 concentration (20 nM). The binding events were generated following changes in fluorescence (ΔFnorm) against peptide concentrations. Subsequently, the equilibrium dissociation constant (KD) was calculated using a 1:1 fit model from the law of mass action. The MST binding affinities (KD values) are represented in a bar graph (Figure 4B). The smallest KD value equals the best affinity, and the highest value is the lowest affinity. […] The changes in fluorescence (ΔFnorm) were normalized to the bound fraction (Figure 4C). The data points towards 1 were considered bound fractions, while data points less than 1 represented the unbound fractions.
FABP3 was labeled with a second-generation red amine-reactive NT-650-NHS fluorescent dye using the Nanotemper labeling kit (MO-L011; Nanotemper, https://nanotempertech.com/). The protein/dye concentration ratio and volume ratio were 1:3 and 1:1, respectively, in accordance with the manufacturer’s instructions. The actual concentration and degree of labeling (DOL) were determined using the extinction coefficient Ɛ280 = 18450 M^−1 cm^−1 for FABP3 and Ɛ650 =195000 M^−1 cm^−1 for the NT650 dye. Using the correction factor of 0.04 at 280 nm, the DOL for all labeling reactions was calculated according to manufacturer’s instructions. Binding experiments were carried out in a PBS-tween 20 buffer (10 mM Na2HPO4, 140 mM NaCl, 2.7 mM KCl, 0.05% tween 20, pH 7.4). The binding assay was performed with a fixed concentration (20 nM) of the fluorescently labeled FABP3 (target) and two-fold serially diluted decreasing concentrations (500 µM to 0.0153 µM) of the unlabeled A-CooP variants (ligand). The reaction mixture of 16 serial diluents of A-CooP or its analogues and FABP3 were filled into the capillary tubes (Nanotemper, MO-K022) and loaded in the Monolith NT 115 instrument accordingly. All experiments were carried out at 25 °C, 40% MST power (medium), and 60% LED power. Binding assay and measurements were performed in triplicates for each experimental setup.
(MST reads how a fluorescent partner responds to local heating, with and without ligand.)
What is called Kd is the equilibrium constant for the complex coming apart. On to `CC(C)C[C@H](NC(=O)CNC(=O)[C@H](CO)NC(=O)[C@H](C)NC(=O)CNC(=O)[C@H](CS)NC(=O)[C@H](C)N)C(=O)NCC(=O)N[C@H](C(=O)N[C@@H](C)C(N)=O)C(C)C` [A-[Ala^3]CooP] (H-ACGASGLGVA-NH2), for which the Kd came out at 250 ± 140 nM.

`CC(C)C[C@H](NC(=O)CNC(=O)[C@H](CO)NC(=O)[C@H](CC(C)C)NC(=O)CNC(=O)[C@H](CS)NC(=O)[C@H](C)N)C(=O)NCC(=O)N[C@H](C(=O)N[C@@H](C)C(N)=O)C(C)C` [A-CooP] (H-ACGLSGLGVA-NH2): the dissociation constant Kd was found to be 2180 ± 1150 nM.

Turning to `CC(C)C[C@H](NC(=O)CNC(=O)[C@H](CO)NC(=O)[C@H](CC(C)C)NC(=O)[C@H](C)NC(=O)[C@H](CS)NC(=O)[C@H](C)N)C(=O)NCC(=O)N[C@H](C(=O)N[C@@H](C)C(N)=O)C(C)C` [A-[Ala^2]CooP] (H-ACALSGLGVA-NH2), the Kd was 90 ± 70 nM.

As to `CC(C)C[C@H](NC(=O)CNC(=O)[C@H](CO)NC(=O)[C@H](CC(C)C)NC(=O)CNC(=O)[C@H](CS)NC(=O)[C@H](C)N)C(=O)NCC(=O)N[C@H](C(=O)N[C@@H](C)C(=O)N[C@@H](CCCCN)C(N)=O)C(C)C` [A-CooP-K] (H-ACGLSGLGVAK-NH2), the Kd is 70 ± 10 nM.

Regarding `CC(C)C[C@@H](NC(=O)CNC(=O)[C@H](NC(=O)[C@@H](C)N)C(C)C)C(=O)NCC(=O)N[C@H](CO)C(=O)N[C@H](CC(C)C)C(=O)NCC(=O)N[C@H](CS)C(=O)N[C@H](C)C(N)=O` [RI-A-CooP] (H-[dA][dV]G[dL]G[dS][dL]G[dC][dA]-NH2), the dissociation constant Kd stood at 24000 ± 13000 nM.

On to `CC(C)C[C@H](NC(=O)CNC(=O)[C@H](CS)NC(=O)[C@H](C)N)C(=O)N[C@@H](CO)C(=O)NCC(=O)N[C@@H](C)C(=O)NCC(=O)N[C@H](C(=O)N[C@@H](C)C(N)=O)C(C)C` [A-[Ala^6]CooP] (H-ACGLSGAGVA-NH2), for which the dissociation constant (Kd) is 190 ± 30 nM.

Take `CC(C)C[C@H](NC(=O)CNC(=O)[C@H](CO)NC(=O)[C@H](CC(C)C)NC(=O)CNC(=O)[C@H](CS)NC(=O)[C@H](C)NC(=O)[C@@H](N)CCCCN)C(=O)NCC(=O)N[C@H](C(=O)N[C@@H](C)C(N)=O)C(C)C` [KA-CooP] (H-KACGLSGLGVA-NH2): the Kd is 630 ± 130 nM.

As to `CC(C)C[C@H](NC(=O)CNC(=O)[C@H](CO)NC(=O)[C@H](CC(C)C)NC(=O)CNC(=O)[C@H](CS)NC(=O)[C@H](C)N)C(=O)N[C@@H](C)C(=O)N[C@H](C(=O)N[C@@H](C)C(N)=O)C(C)C` [A-[Ala^7]CooP] (H-ACGLSGLAVA-NH2), the equilibrium dissociation constant (Kd) was determined as 133000 ± 75000 nM.

As for `CC(C)C[C@H](NC(=O)CNC(=O)[C@H](CO)NC(=O)[C@H](CC(C)C)NC(=O)CNC(=O)[C@H](CS)NC(=O)[C@H](C)N)C(=O)NCC(=O)N[C@@H](C)C(=O)N[C@@H](C)C(N)=O` [A-[Ala^8]CooP] (H-ACGLSGLGAA-NH2), the Kd came out at 120 ± 50 nM.
